These results are taken from patent US20110274789A1, “ISOLATED LACTOBACILLUS PLANTARUM STRAIN INDUCIA DSM 21379 AS PROBIOTIC THAT ENHANCES NATURAL IMMUNITY AND FOOD PRODUCTS AND MEDICINAL PREPARATIONS COMPRISING IT” (priority 2008, published 2011).

The test system of data set [1] is Lactobacillus plantarum Inducia DSM 21379. The experiment in a line: Antibiotic resistance, E-test MIC. As to conditions: for MIC (minimal inhibitory concentration): E-test strips, L. plantarum Inducia DSM 21379; for MIC: Lactiplantibacillus plantarum, DSM21379, read-out: MIC (minimal inhibitory concentration). In kind it is cell-based. As to the method: Method. Lactobacillus plantarum Inducia DSM 21379 was tested using antibiotic strips of the E-test (AB Biodisk, Solna).

The subject of data set [2] is Control strain L. plantarum DSM 21380. In words: Antibiotic resistance, E-test MIC, control strain. It counts as cell-based, Lactobacillus plantarum. As to conditions: for MIC (minimal inhibitory concentration): E-test strips; for MIC: Lactiplantibacillus plantarum, DSM21380, E-test strips, read-out: MIC (minimal inhibitory concentration).
The conditions of data set [3]: in vivo, po; cited from earlier work.

Converted amounts (≈) assume the structure as drawn.

Take Gentamicin: the “MIC (minimal inhibitory concentration)” value in data set [1] is 1 µg/mL; in data set [2] it was 1.5 µg/mL. With `NCCCCN` [Putrescine], the “consumed amount absorbed from intestine into bloodstream” value in data set [3] is on record as 20%. `CC1(C)S[C@@H]2[C@H](NC(=O)[C@H](N)c3ccccc3)C(=O)N2[C@H]1C(=O)O` [Ampicillin]: the figures for the MIC in data set [1] and in data set [2] were 0.19 µg/mL (≈ 0.544 µM) and 0.25 µg/mL (≈ 0.715 µM), respectively. Consider `CC[C@H]1OC(=O)[C@H](C)[C@@H](O[C@H]2C[C@@](C)(OC)[C@@H](O)[C@H](C)O2)[C@H](C)[C@@H](O[C@@H]2O[C@H](C)C[C@H](N(C)C)[C@H]2O)[C@](C)(O)C[C@@H](C)C(=O)[C@H](C)[C@@H](O)[C@]1(C)O` [Erytromycin], for which the “MIC (minimal inhibitory concentration)” value came out at 0.25 µg/mL (≈ 0.341 µM) in data set [1] and 0.19 µg/mL (≈ 0.259 µM) in data set [2]. Regarding `[H]/N=C(/N)N[C@H]1[C@H](O)[C@@H](O)[C@H](O[C@@H]2O[C@@H](C)[C@](O)(C=O)[C@H]2O[C@@H]2O[C@@H](CO)[C@H](O)[C@@H](O)[C@@H]2NC)[C@@H](N/C(N)=N\[H])[C@@H]1O` [Streptomycin], the MIC in data set [1] is 6 µg/mL (≈ 10.3 µM); in data set [2] it was 16 µg/mL (≈ 27.5 µM). In the same order, the values of `O=C(N[C@H](CO)[C@H](O)c1ccc([N+](=O)[O-])cc1)C(Cl)Cl` [Chloramphenicol] are 2 µg/mL (≈ 6.19 µM) and 2 µg/mL (≈ 6.19 µM). As for `CN(C)[C@@H]1C(O)=C(C(N)=O)C(=O)[C@@]2(O)C(O)=C3C(=O)c4c(O)cccc4[C@@](C)(O)[C@H]3C[C@@H]12` [Tetracycline], the figures for the MIC in data set [1] and in data set [2] were 6 µg/mL (≈ 13.5 µM) and 8 µg/mL (≈ 18 µM), respectively. For the compound Cipro/ofloxacin, the “MIC (minimal inhibitory concentration)” value in data set [1] and in data set [2] was 32 µg/mL in each case. As for `CCC[C@@H]1C[C@@H](C(=O)N[C@@H]([C@H]2O[C@H](SC)[C@H](O)[C@@H](O)[C@H]2O)[C@H](C)Cl)N(C)C1` [Clindamycin], the MIC in data set [1] was 0.016 µg/mL (≈ 0.0376 µM); in data set [2], 0.032 µg/mL (≈ 0.0753 µM).
